SMILES strings stand for the structures. Bounds are passed on as bounds.

One series relates to IL-6. The series is described as follows: Measurement of LPS Induced IL-6 Secretion from Whole Blood. The note with it: LPS 200 ng/ml, 24 hours, read-out: pIC50 (IL-6 levels) (converted). In kind it is cell-based. On the procedure:
Activation of monocytic cells by agonists of toll-like receptors such as bacterial lipopolysaccharide (LPS) results in production of key inflammatory mediators including IL-6. Such pathways are widely considered to be central to the pathophysiology of a range of auto-immune and inflammatory disorders.
Compounds to be tested are diluted to give a range of appropriate concentrations of which 1 ul of the diluted stocks is added to a 96 well plate. Following addition of whole blood (130 ul) the plates are incubated at 37 degrees (5% CO2) for 30 min before the addition of 10 ul of 2.8 ug/ml LPS, diluted in complete RPMI 1640 (final concentration=200 ng/ml), to give a total volume of 140 ul per well. After further incubation for 24 hours at 37 degrees, 140 ul of PBS are added to each well. The plates are sealed, shaken for 10 minutes and then centrifuged (2500 rpm×10 min). 100 ul of the supernatant are removed and IL-6 levels assayed by immunoassay (typically by MesoScale Discovery technology) either immediately or following storage at −20 degrees. Concentration response curves for each compound was generated from the data and an IC50 value was calculated

The next series relates to breast cell lines. The series is described as follows: Oncology Cell Growth Assay, breast cell lines. The series is classed as cell-based. Particulars: Homo sapiens, 72 hours, CellTiter-Glo, read-out: gIC50. On the procedure:
(§1) Human cell lines (n=33 comprising 15 heme cell lines, […] and 4 other cell lines) were cultured in RPMI-1640 containing 10% fetal bovine serum, 1000 viable cells per well were plated in 384-well black flat bottom polystyrene plates (Greiner #781086) in 48 μl of culture media. All plates were placed at 5% CO2, 37° C. overnight. The following day one plate was harvested with CellTiter-Glo (CTG, Promega #G7573) for a time equal to 0 (T0) measurement and compound (20 point titration from 14.7 uM to 7 pM) was added to the remaining plates. The final concentration of DMSO in all wells was 0.15%. Cells were incubated for 72 hours or the indicated time and each plate was developed with CellTiter-Glo reagent using a volume equivalent to the cell culture volume in the wells. Plates were shaken for approximately 2 minutes and chemiluminescent signal was read on the Analyst GT (Molecular Devices) or EnVision Plate Reader (Perkin Elmer).
(§2) Results were expressed as a percent of the T0 and plotted against the compound concentration. […] The Ymin-T0 value is determined by subtracting the T0 value (100%) from the Ymin value (%) determined from the fit of the concentration response curve. […]

In series [1] the test system is Human cell lines (n=33 comprising 15 heme cell lines, 14 breast cell lines and 4 other cell lines). The series is described as follows: Oncology Cell Growth Assay, all cell lines. In kind it is cell-based. The note with it: across all cell lines, 72 hours, CellTiter-Glo, read-out: gIC50. On the procedure: as §1, §2
In general terms: Cellular ATP, detected with luciferase, serves as a proxy for viable cell number.

The subject of another series is heme cell lines. The series is described as follows: Oncology Cell Growth Assay, heme cell lines. In kind it is cell-based. The note with it: Homo sapiens, 72 hours, CellTiter-Glo, read-out: gIC50. Here is the method:
as §1, §2

Another series deals with Balb/c male mice. The series is described as follows: In Vivo Mouse Endotoxemia Model. Particulars: 15 mg/kg LPS i.p., compound 10 mg/kg intravenously ninety minutes later; for Numbers of animals surviving at 4 days (summed across multiple repeat experiments): survivors/total. An excerpt:
High doses of Endotoxin (bacterial lipopolysaccharide) administered to animals produce a profound shock syndrome including a strong inflammatory response, dysregulation of cardiovascular function, organ failure and ultimately mortality. This pattern of response is very similar to human sepsis and septic shock, where the body's response to a significant bacterial infection can be similarly life threatening.
To test the compounds for use in the invention groups of eight Balb/c male mice were given a lethal dose of 15 mg/kg LPS by intraperitoneal injection. Ninety minutes later, animals were dosed intravenously with vehicle (20% cyclodextrin 1% ethanol in apyrogen water) or compound (10 mg/kg). The survival of animals was monitored at 4 days.
Numbers of animals surviving at 4 days (summed across multiple repeat experiments)

In the next series the test system is TNFα. The series is described as follows: LPS Stimulated Whole Blood Measuring TNFα Levels Assay. In kind it is cell-based. Particulars: LPS 200 ng/ml, 24 h, read-out: pIC50 (TNFα levels) (converted). On the procedure:
Activation of monocytic cells by agonists of toll-like receptors such as bacterial lipopolysaccharide (LPS) results in production of key inflammatory mediators including TNFα. Such pathways are widely considered to be central to the pathophysiology of a range of auto-immune and inflammatory disorders.
Compounds to be tested are diluted to give a range of appropriate concentrations and 1 ul of the dilution stocks is added to wells of a 96 plate. Following addition of whole blood (130 ul) the plates are incubated at 37 degrees (5% CO2) for 30 min before the addition of 10 ul of 2.8 ug/ml LPS, diluted in complete RPMI 1640 (final concentration=200 ng/ml), to give a total volume of […] per well. After further incubation for 24 h at 37 degrees, 140 ul of PBS are added to each well. The plates are sealed, shaken for 10 minutes and then centrifuged (2500 rpm×10 min). 100 ul of the supernatant are removed and TNFα levels assayed by immunoassay (typically by MesoScale Discovery technology) either immediately or following storage at −20 degrees. Dose response curves for each compound was generated from the data and an IC50 value was calculated.

As to `COc1cc2c(cc1-c1c(C)noc1C)ncc1[nH]c(=O)n([C@@H](C)c3ccccn3)c12` (single isomer, unassigned) [Example 39], the IC50 in the series on IL-6 was no more than 3.16 µM.
In the case of `COc1cc2c(cc1-c1c(C)noc1C)ncc1nc(C3CCOCC3)n([C@H](C)c3ccccn3)c12` (single isomer, unassigned) [Example 45], the IC50 in the series with IL-6 is no more than 3.16 µM.
Take `COc1cc2c(cc1-c1c(C)noc1C)ncc1[nH]c(=O)n([C@H](C)c3ccccn3)c12` [Example 11, 7-(3,5-dimethyl-4-isoxazolyl)-8-(methoxy)-1-[(1R)-1-(2-pyridinyl)ethyl]-1,3-dihydro-2H-imidazo[4,5-c]quinolin-2-one]: the IC50 with IL-6 was no more than 3.16 µM; in the series on breast cell lines, 0.432 to 11.1 µM; in series [1], 0.118 to 11.1 µM; in the series with heme cell lines, 0.118 to 1.04 µM; with TNFα, no more than 3.16 µM. Moreover, the “Animals surviving at 4 days, percent” value with Balb/c male mice was found to be 83%. For the same compound, in the series with Balb/c male mice, the “Numbers of animals surviving at 4 days (summed across multiple repeat experiments)” value was 55/66.
For the compound `COc1cc2c(cc1-c1c(C)noc1C)ncc1[nH]c(=O)n(-c3ccccc3OC(F)(F)F)c12` [Example 12, 7-(3,5-dimethyl-4-isoxazolyl)-8-(methoxy)-1-{2-[(trifluoromethyl)oxy]phenyl}-1,3-dihydro-2H-imidazo[4,5-c]quinolin-2-one], the IC50 with TNFα is no more than 3.16 µM.
Still for that read-out and setting: for `COc1cc2c(cc1-c1c(C)noc1C)ncc1[nH]c(=O)n(Cc3ccccc3)c12` [Example 15] the value was no more than 3.16 µM.
By melting point is commonly meant the temperature, or range, at which the solid turns liquid. Compound `Cc1noc(C)c1-c1ccc2c(c1)ncc1ncn(-c3ccccc3C(C)(C)C)c12` [Example 18, 1-[2-(tert-butyl)phenyl]-7-(3,5-dimethyl-4-isoxazolyl)-1H-imidazo[4,5-c]quinoline] gave a melting point of 216 °C.
Consider `COc1cc2c(cc1-c1c(C)noc1C)ncc1nc(C3CCOCC3)n(Cc3ccccn3)c12` [Example 27, 7-(3,5-dimethyl-4-isoxazolyl)-8-(methoxy)-1-(2-pyridinylmethyl)-2-(tetrahydro-2H-pyran-4-yl)-1H-imidazo[4,5-c]quinoline], for which, in the series on TNFα, the IC50 was no more than 3.16 µM.
With `COc1cc2c(cc1-c1c(C)noc1C)ncc1nc(C3CCOCC3)n([C@H](C)c3ccccc3)c12` [Example 31, 7-(3,5-dimethyl-4-isoxazolyl)-8-(methoxy)-1-[(1R)-1-phenylethyl]-2-(tetrahydro-2H-pyran-4-yl)-1H-imidazo[4,5-c]quinoline], in the series on Balb/c male mice, the “Animals surviving at 4 days, percent” value amounted to 38% and the “Numbers of animals surviving at 4 days (summed across multiple repeat experiments)” value is on record as 9/24. Also, in the series on TNFα, the IC50 was no more than 3.16 µM.
As to `COCCn1c(=O)n([C@H](C)c2ccccn2)c2c3cc(OC)c(-c4c(C)noc4C)cc3ncc21` [Example 37, 7-(3,5-dimethyl-4-isoxazolyl)-8-(methyloxy)-3-[2-(methyloxy)ethyl]-1-[(1R)-1-(2-pyridinyl)ethyl]-1,3-dihydro-2H-imidazo[4,5-c]quinolin-2-one], the IC50 in the series on IL-6 was no more than 3.16 µM.
On the same count and under the same terms, the figure for `COc1cc2c(cc1-c1c(C)noc1C)ncc1[nH]c(=O)n(C(C)c3cnn(C)c3)c12` (stereo not drawn) [Example 40, 7-(3,5-dimethyl-4-isoxazolyl)-8-(methyloxy)-1-[1-(1-methyl-1H-pyrazol-4-yl)ethyl]-1,3-dihydro-2H-imidazo[4,5-c]quinolin-2-one] is no more than 3.16 µM.
Same read-out and setting: for `COCc1nc2cnc3cc(-c4c(C)noc4C)c(OC)cc3c2n1C(C)c1ccccn1` (stereo not drawn) [Example 51, 7-(3,5-dimethyl-4-isoxazolyl)-8-(methyloxy)-2-[(methyloxy)methyl]-1-[1-(2-pyridinyl)ethyl]-1H-imidazo[4,5-c]quinoline] the value was no more than 3.16 µM.
On to `COc1cc2c(cc1-c1c(C)n[nH]c1C)ncc1nc(C3CCOCC3)n([C@H](C)c3ccccc3)c12` [Example 108, 7-(3,5-dimethyl-1H-pyrazol-4-yl)-8-(methyloxy)-1-[(1R)-1-phenylethyl]-2-(tetrahydro-2H-pyran-4-yl)-1H-imidazo[4,5-c]quinoline], for which the IC50 with TNFα was no more than 3.16 µM.
Same read-out and setting: for `COc1nc2c(cc1-c1c(C)noc1C)ncc1[nH]c(=O)n(-c3ccccc3OC(F)(F)F)c12` [Example 126, 7-(3,5-dimethyl-4-isoxazolyl)-8-(methyloxy)-1-{2-[(trifluoromethyl)oxy]phenyl}-1,3-dihydro-2H-imidazo[4,5-c]-1,5-naphthyridin-2-one] the value was no more than 3.16 µM.

The values are drawn from US8557984B2, “Imidazo [4, 5-C] quinoline derivatives as bromodomain inhibitors” (GlaxoSmithKline LLC, priority 2009, dated 2013).
